# Experimental data reported in patent US11965039B2, “Compstatin analogues and their medical uses” (priority 2018, dated 2024).
# pIC50: −log10 of the molar value. Positions of bridges follow the written chain, without caps; N, C: chain ends. Non-standard residues stand in square brackets, D forms with d. Residues, ends and D or L forms follow the SMILES beside them. Trp(1-Me) = Cn1cc(C[C@H](N)C(=O)O)c2ccccc21; 1Nal = N[C@@H](Cc1cccc2ccccc12)C(=O)O; Sar = CNCC(=O)O
# Key:
# [1] = system: classical complement pathway; assay: In vitro haemolysis assay (inhibition of classical complement pathway); format: cell-based, human; conditions: human serum, sensitized sheep red blood cells; Table 3, given as upper bounds; read-out: IC50, inhibition of hemolysis
# Procedure, shortened: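 Compound dilutions preincubated 15 min at room temperature with diluted human serum (titrated per batch for 70-90% maximal haemolysis), then antibody-sensitized sheep RBC (10^7/well) added for 30 min at 37 °C in Tris/casein buffer, pH 7.4. Stopped with EDTA; haemolysis read at 405 nm; IC50 by 4PL fit.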
# [2] = Solubility test at 10 mg/mL (visual inspection and light scattering); format: physicochemical; conditions: for Solubility, Condition 1: Acetate pH 4; for Solubility, Condition 2: Acetate pH 5; for Solubility, Condition 3: Phosphate pH 6; for Solubility, Condition 4: Phosphate pH 7; for Solubility, Condition 5: Phosphate pH 7.5
Structure (SMILES),pIC50 [1],"Solubility, Condition 1 [2]","Solubility, Condition 2 [2]","Solubility, Condition 3 [2]","Solubility, Condition 4 [2]","Solubility, Condition 5 [2]"
CC[C@H](C)[C@@H]1NC(=O)[C@@H](NC(=O)[C@H](Cc2ccccc2)NC(C)=O)CSSC[C@@H](C(=O)N[C@H](C(=O)NCC(=O)N[C@@H](C)C(=O)N[C@@H](CCC(=O)O)C(=O)N[C@@H](CO)C(N)=O)[C@@H](C)O)NC(=O)[C@H](CCCNC(=N)N)NC(=O)[C@H](Cc2c[nH]cn2)NC(=O)[C@H](CCC(=O)O)NC(=O)CNC(=O)[C@H](Cc2c[nH]c3ccccc23)NC(=O)[C@H](CC(=O)O)NC(=O)[C@H](CCC(N)=O)NC(=O)[C@H](Cc2cccc3ccccc23)NC1=O [Compound 63] (Ac-FCI[1Nal]QDWGEHRCTGAES-NH2; disulfide 2-12),> 7.00,"− (“−” denotes lack of solubility at the given condition, as UV absorbance at 340 nm exceeds 0.1 AU and/or it is visibly turbid or contains particles)","− (“−” denotes lack of solubility at the given condition, as UV absorbance at 340 nm exceeds 0.1 AU and/or it is visibly turbid or contains particles)","+ (“+” denotes solubility at the given condition, as determined by UV absorbance being less than 0.1 AU at 340 nm and the sample being clear when manually inspected)","+ (“+” denotes solubility at the given condition, as determined by UV absorbance being less than 0.1 AU at 340 nm and the sample being clear when manually inspected)","+ (“+” denotes solubility at the given condition, as determined by UV absorbance being less than 0.1 AU at 340 nm and the sample being clear when manually inspected)"
CC[C@H](C)[C@H](NC(=O)[C@H](C)NC(=O)[C@H](CO)NC(=O)CNC(=O)[C@H](CCC(=O)O)NC(C)=O)C(=O)N[C@H]1CSSC[C@@H](C(=O)N(C)CC(=O)N[C@@H](CCC(=O)O)C(N)=O)NC(=O)[C@H](CCCNC(=N)N)NC(=O)[C@H](Cc2c[nH]cn2)NC(=O)[C@H](CCC(=O)O)NC(=O)CNC(=O)[C@H](Cc2c[nH]c3ccccc23)NC(=O)[C@H](CC(=O)O)NC(=O)[C@H](CCC(N)=O)NC(=O)[C@H](Cc2cn(C)c3ccccc23)NC(=O)[C@H]([C@@H](C)CC)NC1=O [Compound 49] (Ac-EGSAICI[Trp(1-Me)]QDWGEHRC[Sar]E-NH2; disulfide 6-16),> 7.00,"− (“−” denotes lack of solubility at the given condition, as UV absorbance at 340 nm exceeds 0.1 AU and/or it is visibly turbid or contains particles)","− (“−” denotes lack of solubility at the given condition, as UV absorbance at 340 nm exceeds 0.1 AU and/or it is visibly turbid or contains particles)","+ (“+” denotes solubility at the given condition, as determined by UV absorbance being less than 0.1 AU at 340 nm and the sample being clear when manually inspected)","+ (“+” denotes solubility at the given condition, as determined by UV absorbance being less than 0.1 AU at 340 nm and the sample being clear when manually inspected)","+ (“+” denotes solubility at the given condition, as determined by UV absorbance being less than 0.1 AU at 340 nm and the sample being clear when manually inspected)"
"CC[C@H](C)[C@@H]1NC(=O)[C@@H](NC(=O)[C@H](Cc2ccccc2)NC(C)=O)CSSC[C@@H](C(=O)N[C@H](C(=O)NCC(=O)N[C@@H](C)C(=O)N[C@@H](CCC(=O)O)C(=O)N[C@@H](CO)C(N)=O)[C@@H](C)O)NC(=O)[C@H](CCCNC(=N)N)NC(=O)[C@H](Cc2c[nH]cn2)NC(=O)[C@H](CCC(=O)O)NC(=O)CN(C)C(=O)[C@H](Cc2c[nH]c3ccccc23)NC(=O)[C@H](CC(=O)O)NC(=O)[C@H](CCC(N)=O)NC(=O)[C@H](Cc2cn(C)c3ccccc23)NC1=O [Compound 72, Ac-FC(1)I[1-Me-Trp]QDW[Sar]EHRC(1)TGAES-NH2] (Ac-FCI[Trp(1-Me)]QDW[Sar]EHRCTGAES-NH2; disulfide 2-12)",> 7.00,"− (“−” denotes lack of solubility at the given condition, as UV absorbance at 340 nm exceeds 0.1 AU and/or it is visibly turbid or contains particles)","− (“−” denotes lack of solubility at the given condition, as UV absorbance at 340 nm exceeds 0.1 AU and/or it is visibly turbid or contains particles)","+ (“+” denotes solubility at the given condition, as determined by UV absorbance being less than 0.1 AU at 340 nm and the sample being clear when manually inspected)","+ (“+” denotes solubility at the given condition, as determined by UV absorbance being less than 0.1 AU at 340 nm and the sample being clear when manually inspected)","+ (“+” denotes solubility at the given condition, as determined by UV absorbance being less than 0.1 AU at 340 nm and the sample being clear when manually inspected)"
CC[C@H](C)[C@@H]1NC(=O)[C@@H](NC(=O)[C@H](Cc2ccccc2)NC(=O)[C@H](C)NC(=O)[C@H](CO)NC(=O)CNC(=O)[C@H](CCC(=O)O)NC(C)=O)CSSC[C@@H](C(=O)N(C)CC(=O)N[C@@H](CCC(=O)O)C(N)=O)NC(=O)[C@H](CCCNC(=N)N)NC(=O)[C@H](Cc2c[nH]cn2)NC(=O)[C@H](CCC(=O)O)NC(=O)CNC(=O)[C@H](Cc2c[nH]c3ccccc23)NC(=O)[C@H](CC(=O)O)NC(=O)[C@H](CCC(N)=O)NC(=O)[C@H](Cc2cn(C)c3ccccc23)NC1=O [Compound 53] (Ac-EGSAFCI[Trp(1-Me)]QDWGEHRC[Sar]E-NH2; disulfide 6-16),> 7.00,"− (“−” denotes lack of solubility at the given condition, as UV absorbance at 340 nm exceeds 0.1 AU and/or it is visibly turbid or contains particles)","− (“−” denotes lack of solubility at the given condition, as UV absorbance at 340 nm exceeds 0.1 AU and/or it is visibly turbid or contains particles)","+ (“+” denotes solubility at the given condition, as determined by UV absorbance being less than 0.1 AU at 340 nm and the sample being clear when manually inspected)","+ (“+” denotes solubility at the given condition, as determined by UV absorbance being less than 0.1 AU at 340 nm and the sample being clear when manually inspected)","+ (“+” denotes solubility at the given condition, as determined by UV absorbance being less than 0.1 AU at 340 nm and the sample being clear when manually inspected)"
CC[C@H](C)[C@@H]1NC(=O)[C@@H](NC(=O)[C@@H](NC(=O)[C@H](CCC(=O)O)NC(=O)[C@H](CO)NC(=O)[C@H](CCC(=O)O)NC(C)=O)[C@@H](C)CC)CSSC[C@@H](C(=O)N[C@@H](CCC(=O)O)C(=O)NCC(=O)N[C@@H](CCC(=O)O)C(N)=O)NC(=O)[C@H](CCCNC(=N)N)NC(=O)[C@H](Cc2c[nH]cn2)NC(=O)[C@H](CCC(=O)O)NC(=O)CNC(=O)[C@H](Cc2c[nH]c3ccccc23)NC(=O)[C@H](CC(=O)O)NC(=O)[C@H](CCC(N)=O)NC(=O)[C@H](Cc2c[nH]c3ccccc23)NC1=O [Compound 36] (Ac-ESEICIWQDWGEHRCEGE-NH2; disulfide 5-15),> 6.60,"− (“−” denotes lack of solubility at the given condition, as UV absorbance at 340 nm exceeds 0.1 AU and/or it is visibly turbid or contains particles)","− (“−” denotes lack of solubility at the given condition, as UV absorbance at 340 nm exceeds 0.1 AU and/or it is visibly turbid or contains particles)","− (“−” denotes lack of solubility at the given condition, as UV absorbance at 340 nm exceeds 0.1 AU and/or it is visibly turbid or contains particles)","+ (“+” denotes solubility at the given condition, as determined by UV absorbance being less than 0.1 AU at 340 nm and the sample being clear when manually inspected)","+ (“+” denotes solubility at the given condition, as determined by UV absorbance being less than 0.1 AU at 340 nm and the sample being clear when manually inspected)"
CC[C@H](C)[C@H](NC(C)=O)C(=O)N[C@H]1CSSC[C@@H](C(=O)N[C@@H](CCC(=O)O)C(N)=O)NC(=O)[C@H](CCCNC(=N)N)NC(=O)[C@H](Cc2c[nH]cn2)NC(=O)[C@H](CCC(=O)O)NC(=O)CNC(=O)[C@H](Cc2c[nH]c3ccccc23)NC(=O)[C@H](CC(=O)O)NC(=O)[C@H](CCC(N)=O)NC(=O)[C@H](Cc2c[nH]c3ccccc23)NC(=O)[C@H]([C@@H](C)CC)NC1=O [Compound 22] (Ac-ICIWQDWGEHRCE-NH2; disulfide 2-12),> 7.00,"+ (“+” denotes solubility at the given condition, as determined by UV absorbance being less than 0.1 AU at 340 nm and the sample being clear when manually inspected)","− (“−” denotes lack of solubility at the given condition, as UV absorbance at 340 nm exceeds 0.1 AU and/or it is visibly turbid or contains particles)","− (“−” denotes lack of solubility at the given condition, as UV absorbance at 340 nm exceeds 0.1 AU and/or it is visibly turbid or contains particles)","+ (“+” denotes solubility at the given condition, as determined by UV absorbance being less than 0.1 AU at 340 nm and the sample being clear when manually inspected)","+ (“+” denotes solubility at the given condition, as determined by UV absorbance being less than 0.1 AU at 340 nm and the sample being clear when manually inspected)"
